# According to ChEMBL document CHEMBL1275577, “Study of the in vitro activities of rifaximin and comparator agents against 536 anaerobic intestinal bacteria from the perspective of potential utility in pathology involving bowel flora” (Antimicrob Agents Chemother, 2009):
# Legend:
# Eubacterium rectale = experiment: Antimicrobial activity against Eubacterium rectale by Wadsworth agar dilution method; assay type: functional; conditions: Agathobacter rectalis
# Lactobacillus jensenii = experiment: Antimicrobial activity against Lactobacillus jensenii by Wadsworth agar dilution method; assay type: functional
# Clostridium sp. = experiment: Antimicrobial activity against Clostridium sp. by Wadsworth agar dilution method; assay type: functional
# [1] = tested on: Clostridium acetobutylicum; experiment: Antimicrobial activity against Clostridium acetobutylicum by Wadsworth agar dilution method; assay type: functional
# [2] = tested on: Porphyromonas asaccharolytica; experiment: Antimicrobial activity against Porphyromonas asaccharolyticus by Wadsworth agar dilution method; assay type: functional
# [3] = tested on: Lacticaseibacillus rhamnosus; experiment: Antimicrobial activity against Lactobacillus rhamnosus by Wadsworth agar dilution method; assay type: functional
# Prevotella corporis = experiment: Antimicrobial activity against Prevotella corporis by Wadsworth agar dilution method; assay type: functional
# [4] = tested on: Prevotella melaninogenica; experiment: Antimicrobial activity against Prevotella melaninogenica by Wadsworth agar dilution method; assay type: functional
# Clostridium nexile = experiment: Antimicrobial activity against Clostridium nexile by Wadsworth agar dilution method; assay type: functional; conditions: Faecalimonas nexilis
# Clostridium tertium = experiment: Antimicrobial activity against Clostridium tertium by Wadsworth agar dilution method; assay type: functional
# Bacteroides stercoris = experiment: Antimicrobial activity against Bacteroides stercoris by Wadsworth agar dilution method; assay type: functional
# Eubacterium saburreum = experiment: Antimicrobial activity against Eubacterium saburreum by Wadsworth agar dilution method; assay type: functional; conditions: Lachnoanaerobaculum saburreum
# Desulfovibrio piger = experiment: Antimicrobial activity against Desulfovibrio piger by Wadsworth agar dilution method; assay type: functional
# Clostridium septicum = experiment: Antimicrobial activity against Clostridium septicum by Wadsworth agar dilution method; assay type: functional
# Atopobium minutum = experiment: Antimicrobial activity against Atopobium minutum by Wadsworth agar dilution method; assay type: functional
# [5] = Antimicrobial activity against Bifidobacterium infantis by Wadsworth agar dilution method; assay type: functional, Bifidobacterium longum subsp. infantis; conditions: Bifidobacterium longum
# [6] = tested on: Lactobacillus acidophilus; experiment: Antimicrobial activity against Lactobacillus acidophilus by Wadsworth agar dilution method; assay type: functional
# Clostridium perfringens = experiment: Antimicrobial activity against Clostridium perfringens by Wadsworth agar dilution method; assay type: functional
# Bacteroides uniformis = experiment: Antimicrobial activity against Bacteroides uniformis by Wadsworth agar dilution method; assay type: functional
# Prevotella intermedia = experiment: Antimicrobial activity against Prevotella intermedia by Wadsworth agar dilution method; assay type: functional
# Parabacteroides merdae = experiment: Antimicrobial activity against Parabacteroides merdae by Wadsworth agar dilution method; assay type: functional
# Schaalia odontolytica = experiment: Antimicrobial activity against Actinomyces odontolyticus by Wadsworth agar dilution method; assay type: functional
# [7] = tested on: Lactiplantibacillus plantarum; experiment: Antimicrobial activity against Lactobacillus plantarum by Wadsworth agar dilution method; assay type: functional
# Peptoniphilus harei = experiment: Antimicrobial activity against Peptoniphilus harei by Wadsworth agar dilution method; assay type: functional
# Porphyromonas somerae = experiment: Antimicrobial activity against Porphyromonas somerae by Wadsworth agar dilution method; assay type: functional
# Bacteroides ovatus = experiment: Antimicrobial activity against Bacteroides ovatus by Wadsworth agar dilution method; assay type: functional
# Fusobacterium varium = experiment: Antimicrobial activity against Fusobacterium varium by Wadsworth agar dilution method; assay type: functional
# [8] = tested on: Paraclostridium bifermentans; experiment: Antimicrobial activity against Clostridium bifermentans by Wadsworth agar dilution method; assay type: functional
# Clostridium symbiosum = experiment: Antimicrobial activity against Clostridium symbiosum by Wadsworth agar dilution method; assay type: functional
# Clostridium butyricum = experiment: Antimicrobial activity against Clostridium butyricum by Wadsworth agar dilution method; assay type: functional
# Collinsella aerofaciens = experiment: Antimicrobial activity against Colinsella aerofaciens by Wadsworth agar dilution method; assay type: functional
# [9] = tested on: Pseudoramibacter alactolyticus; experiment: Antimicrobial activity against Eubacterium alactolyticum by Wadsworth agar dilution method; assay type: functional
# Eubacterium biforme = experiment: Antimicrobial activity against Eubacterium biforme by Wadsworth agar dilution method; assay type: functional; conditions: Holdemanella biformis
# [10] = tested on: Desulfovibrio desulfuricans; experiment: Antimicrobial activity against Desulfovibrio desulfuricans by Wadsworth agar dilution method; assay type: functional
# [11] = tested on: Bacteroides thetaiotaomicron; experiment: Antimicrobial activity against Bacteroides thetaiotaomicron by Wadsworth agar dilution method; assay type: functional
# [12] = tested on: Parabacteroides goldsteinii; experiment: Antimicrobial activity against Parabacteroides goldsteinii by Wadsworth agar dilution method; assay type: functional
# Tissierella praeacuta = experiment: Antimicrobial activity against Clostridium hastiforme by Wadsworth agar dilution method; assay type: functional
# [13] = tested on: Clostridium paraputrificum; experiment: Antimicrobial activity against Clostridium paraputrificum by Wadsworth agar dilution method; assay type: functional
# [14] = tested on: Bifidobacterium pseudolongum; experiment: Antimicrobial activity against Bifidobacterium pseudolongum by Wadsworth agar dilution method; assay type: functional
# Blautia producta = experiment: Antimicrobial activity against Ruminococcus productus by Wadsworth agar dilution method; assay type: functional
# [15] = tested on: Clostridium lactatifermentans; experiment: Antimicrobial activity against Clostridium lactatifermentans by Wadsworth agar dilution method; assay type: functional; conditions: Anaerotignum lactatifermentans
# Bifidobacterium longum = experiment: Antimicrobial activity against Bifidobacterium longum by Wadsworth agar dilution method; assay type: functional
# Ruminococcus torques = experiment: Antimicrobial activity against Ruminococcus torques by Wadsworth agar dilution method; assay type: functional; conditions: Mediterraneibacter torques
# Fusobacterium sp. = experiment: Antimicrobial activity against Fusobacterium sp. by Wadsworth agar dilution method; assay type: functional
# Bacteroides fragilis = experiment: Antimicrobial activity against Bacteroides fragilis by Wadsworth agar dilution method; assay type: functional
# Clostridium disporicum = experiment: Antimicrobial activity against Clostridium disporicum by Wadsworth agar dilution method; assay type: functional
# Bifidobacterium bifidum = experiment: Antimicrobial activity against Bifidobacterium bifidum by Wadsworth agar dilution method; assay type: functional
# [16] = tested on: Fusobacterium necrophorum; experiment: Antimicrobial activity against Fusobacterium necrophorum by Wadsworth agar dilution method; assay type: functional
structure (smiles),measurement,setting,value
CO[C@H]1/C=C/O[C@@]2(C)Oc3c(C)c(O)c4c(O)c(c5c(nc6cc(C)ccn65)c4c3C2=O)NC(=O)/C(C)=C\C=C\[C@H](C)[C@H](O)[C@@H](C)[C@@H](O)[C@@H](C)[C@H](OC(C)=O)[C@@H]1C [RIFAXIMIN],MIC50,Eubacterium rectale,0.5 µg/mL
same,MIC90,Eubacterium rectale,> 1020 µg/mL
same,MIC50,Lactobacillus jensenii,0.5 µg/mL
same,MIC90,Lactobacillus jensenii,> 1020 µg/mL
same,MIC,Clostridium sp.,0.25 µg/mL
same,MIC50,Clostridium sp.,0.25 µg/mL
same,MIC90,Clostridium sp.,> 1020 µg/mL
same,MIC,[1],0.25 µg/mL
same,MIC50,[1],0.25 µg/mL
same,MIC90,[1],> 1020 µg/mL
same,MIC,[2],0.25 µg/mL
same,MIC50,[2],0.25 µg/mL
same,MIC90,[2],0.5 µg/mL
same,MIC50,[3],0.5 µg/mL
same,MIC90,[3],> 1020 µg/mL
same,MIC,Prevotella corporis,0.25 µg/mL
same,MIC50,Prevotella corporis,0.25 µg/mL
same,MIC90,Prevotella corporis,0.5 µg/mL
same,MIC,[4],0.25 µg/mL
same,MIC50,[4],0.25 µg/mL
same,MIC90,[4],0.5 µg/mL
same,MIC,Clostridium nexile,0.25 µg/mL
same,MIC50,Clostridium nexile,0.25 µg/mL
same,MIC90,Clostridium nexile,> 1020 µg/mL
same,MIC,Clostridium tertium,0.25 µg/mL
same,MIC50,Clostridium tertium,0.25 µg/mL
same,MIC90,Clostridium tertium,> 1020 µg/mL
same,MIC,Bacteroides stercoris,0.25 µg/mL
same,MIC50,Bacteroides stercoris,0.25 µg/mL
same,MIC90,Bacteroides stercoris,0.5 µg/mL
same,MIC50,Eubacterium saburreum,0.5 µg/mL
same,MIC90,Eubacterium saburreum,> 1020 µg/mL
same,MIC50,Desulfovibrio piger,16 µg/mL
same,MIC90,Desulfovibrio piger,332 µg/mL
same,MIC,Clostridium septicum,0.25 µg/mL
same,MIC50,Clostridium septicum,0.25 µg/mL
same,MIC90,Clostridium septicum,> 1020 µg/mL
same,MIC50,Atopobium minutum,0.5 µg/mL
same,MIC90,Atopobium minutum,> 1020 µg/mL
same,MIC50,[5],0.5 µg/mL
same,MIC90,[5],> 1020 µg/mL
same,MIC50,[6],0.5 µg/mL
same,MIC90,[6],> 1020 µg/mL
same,MIC50,Clostridium perfringens,0.25 µg/mL
same,MIC90,Clostridium perfringens,0.25 µg/mL
same,MIC,Bacteroides uniformis,0.25 µg/mL
same,MIC50,Bacteroides uniformis,0.25 µg/mL
same,MIC90,Bacteroides uniformis,0.5 µg/mL
same,MIC,Prevotella intermedia,0.25 µg/mL
same,MIC50,Prevotella intermedia,0.25 µg/mL
same,MIC90,Prevotella intermedia,0.5 µg/mL
same,MIC,Parabacteroides merdae,0.25 µg/mL
same,MIC50,Parabacteroides merdae,0.25 µg/mL
same,MIC90,Parabacteroides merdae,1 µg/mL
same,MIC50,Schaalia odontolytica,0.5 µg/mL
same,MIC90,Schaalia odontolytica,> 1020 µg/mL
same,MIC50,[7],0.5 µg/mL
same,MIC90,[7],> 1020 µg/mL
same,MIC,Peptoniphilus harei,0.25 µg/mL
same,MIC50,Peptoniphilus harei,0.25 µg/mL
same,MIC90,Peptoniphilus harei,4 µg/mL
same,MIC,Porphyromonas somerae,0.25 µg/mL
same,MIC50,Porphyromonas somerae,0.25 µg/mL
same,MIC90,Porphyromonas somerae,0.5 µg/mL
same,MIC50,Bacteroides ovatus,1 µg/mL
same,MIC90,Bacteroides ovatus,1 µg/mL
same,MIC50,Fusobacterium varium,16 µg/mL
same,MIC90,Fusobacterium varium,> 1020 µg/mL
same,MIC,[8],0.25 µg/mL
same,MIC50,[8],0.25 µg/mL
same,MIC90,[8],> 1020 µg/mL
same,MIC,Clostridium symbiosum,0.25 µg/mL
same,MIC50,Clostridium symbiosum,0.25 µg/mL
same,MIC90,Clostridium symbiosum,> 1020 µg/mL
same,MIC,Clostridium butyricum,0.25 µg/mL
same,MIC50,Clostridium butyricum,0.25 µg/mL
same,MIC90,Clostridium butyricum,> 1020 µg/mL
same,MIC50,Collinsella aerofaciens,0.5 µg/mL
same,MIC90,Collinsella aerofaciens,> 1020 µg/mL
same,MIC50,[9],0.5 µg/mL
same,MIC90,[9],> 1020 µg/mL
same,MIC50,Eubacterium biforme,0.5 µg/mL
same,MIC90,Eubacterium biforme,> 1020 µg/mL
same,MIC,[10],32 µg/mL
same,MIC50,[10],32 µg/mL
same,MIC90,[10],64 µg/mL
same,MIC50,[11],1 µg/mL
same,MIC90,[11],> 1020 µg/mL
same,MIC,[12],0.25 µg/mL
same,MIC50,[12],0.25 µg/mL
same,MIC90,[12],1 µg/mL
same,MIC,Tissierella praeacuta,0.25 µg/mL
same,MIC50,Tissierella praeacuta,0.25 µg/mL
same,MIC90,Tissierella praeacuta,> 1020 µg/mL
same,MIC,[13],0.25 µg/mL
same,MIC50,[13],0.25 µg/mL
same,MIC90,[13],> 1020 µg/mL
same,MIC50,[14],0.5 µg/mL
same,MIC90,[14],> 1020 µg/mL
same,MIC,Blautia producta,0.25 µg/mL
same,MIC50,Blautia producta,0.25 µg/mL
same,MIC90,Blautia producta,4 µg/mL
same,MIC,[15],0.25 µg/mL
same,MIC50,[15],0.25 µg/mL
same,MIC90,[15],> 1020 µg/mL
same,MIC50,Bifidobacterium longum,0.5 µg/mL
same,MIC90,Bifidobacterium longum,> 1020 µg/mL
same,MIC,Ruminococcus torques,0.25 µg/mL
same,MIC50,Ruminococcus torques,0.25 µg/mL
same,MIC90,Ruminococcus torques,4 µg/mL
same,MIC50,Fusobacterium sp.,16 µg/mL
same,MIC90,Fusobacterium sp.,> 1020 µg/mL
same,MIC,Bacteroides fragilis,0.25 µg/mL
same,MIC50,Bacteroides fragilis,0.25 µg/mL
same,MIC90,Bacteroides fragilis,> 1020 µg/mL
same,MIC,Clostridium disporicum,0.25 µg/mL
same,MIC50,Clostridium disporicum,0.25 µg/mL
same,MIC90,Clostridium disporicum,> 1020 µg/mL
same,MIC50,Bifidobacterium bifidum,0.5 µg/mL
same,MIC90,Bifidobacterium bifidum,> 1020 µg/mL
same,MIC50,[16],16 µg/mL
same,MIC90,[16],> 1020 µg/mL
